Assay results from PMC10584882 (Communications Biology, 2023).
“And” between values parts separate entries of the source, which are not always exact repeats. Equal entries are not always repeated.

What was measured:
SARS-CoV-2 M^pro = target: T1, SARS-CoV-2 M^pro (Severe acute respiratory syndrome coronavirus 2, UniProt P0DTD1); format: biochemical
T1 construct: Initially reported to target the viral main protease (M^pro); made in house
Method: In the enzyme inhibition assays, the initial velocities were calculated from the initial linear portions of their curves, assuming steady-state kinetics. IC50 and Ki values were calculated using GraphPad Prism software. Z-FR-AMC (CatK and CatV), Z-RR-AMC (CatB and CatL), and QS1 or Acetyl-VKLQ-AMC (M^pro) substrates were used to monitor reactions. These measurements were done in four independent duplicates or triplicates, respectively.

LC-HK2 cells = test: Fluorescence microscopy, S-protein vesicle size in infected LC-HK2 cells; format: cell-based, human; settings: 1.5 µM, versus control
Method: LC-HK2 was cultivated on coverslips (13 mm diameter) to approximately 80% confluence. The cells were pre-treated for 2 h with 1.5 µM of S-Calpeptin diluted in DMEM supplemented with 2.5% FBS. The compounds were removed, and SARS-CoV-2 strain diluted in DMEM supplemented with 2.5% FBS was added to LC-HK2 cells at M.O.I of 0.05, allowing absorption for 1 h. The viral inoculum was removed, and cells were gently washed with PBS without calcium and magnesium. The cells were incubated in the continued presence of 1.5 µM of S-Calpeptin diluted in DMEM supplemented with 2.5% FBS and were examined by fluorescence microscopy at the time points 32, 40, 48, 56, 64 and 72 h post-infection.
For this purpose, the cells were fixed and permeabilized with 3.7% formaldehyde solution (Sigma-Aldrich, F1635) containing 0.2% Triton X-100 in PBS 1×. […] The images were captured using fluorescence range intensity adjusted identically within each experimental series.
Vesicles size quantifications were obtained from 2D maximum projections of Z stacks exported as grayscale TIFs (16-bit depth) using Automated Image Analysis in Zen 2.6 blue software (ZEISS). […]
In the Fluorescence microscopy evaluation, the P-values were generated by unpaired t-test using GraphPad Prism version 8.00 (La Jolla, CA, USA, www.graphpad.com). […]

CatL [1] = target: T2, CatL (Homo sapiens, UniProt P07711); test: Cathepsin inhibition test, CatL; format: biochemical; settings: for Residual activity (Vi/V0): Fig. S3 panel b, single replicates
T2 construct: made in house
T2 sequence (P07711 114-333): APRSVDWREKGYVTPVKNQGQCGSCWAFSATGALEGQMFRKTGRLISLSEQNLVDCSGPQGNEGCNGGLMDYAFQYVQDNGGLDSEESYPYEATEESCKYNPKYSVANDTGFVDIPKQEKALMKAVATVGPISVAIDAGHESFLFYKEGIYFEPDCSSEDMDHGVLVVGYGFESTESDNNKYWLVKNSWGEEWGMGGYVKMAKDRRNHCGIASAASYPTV

CatL [2] = target: T2, CatL; test: Reversibility of covalent cathepsin inhibition (CatL, 60 min incubation); format: biochemical; settings: 1 nM CatL, 1–80 nM inhibitor, 37 °C
Source text: We observed no increase in relative inhibition over time, thus concluding that the covalent bond between cathepsins and inhibitors is reversible.

## CCCC[C@@H](C=O)NC(=O)[C@H](CC(C)C)NC(=O)OCc1ccccc1 [Calpeptin, reference compound]
SARS-CoV-2 M^pro
  range of M^pro inhibition (in words): micromolar range
LC-HK2 cells
  impact on vesicle morphology / S-protein vesicle size: no substantial impact on vesicle morphology
CatL [1]; inhibitor 0.010 nM, 10 pM
  Residual activity (Vi/V0): 1.181 and 1.134 and 0.9277 and 1.059 and 0.8624 and 0.9348 and 0.9777 and 1.017 and 0.9832 and 0.6727
CatL [1]; inhibitor 0.018 nM, 18 pM
  Residual activity (Vi/V0): 1.262 and 1.015 and 0.8756 and 0.9203 and 0.9271 and 0.9762 and 0.9712 and 1.058 and 1.013 and 1.061
CatL [1]; inhibitor 0.032 nM, 32 pM
  Residual activity (Vi/V0): 1.274 and 1.3352 and 0.8294 and 0.9418 and 0.8372 and 0.9412 and 1.0025 and 0.9769 and 1.076 and 1.186
CatL [1]; inhibitor 0.058 nM, 58 pM
  Residual activity (Vi/V0): 1.241 and 1.238 and 0.7232 and 0.8381 and 0.7506 and 0.9356 and 0.9293 and 0.9501 and 1.073 and 1.146
CatL [1]; inhibitor 0.105 nM, 0.000105 µM
  Residual activity (Vi/V0): 1.299 and 0.9537 and 0.6352 and 0.6893 and 0.6342 and 0.9772 and 0.9319 and 0.9262 and 1.17 and 1.244
CatL [1]; inhibitor 0.189 nM, 0.000189 µM
  Residual activity (Vi/V0): 1.276 and 0.7939 and 0.4796 and 0.5261 and 0.4831 and 0.8363 and 0.8485 and 0.8665 and 1.045 and 0.9948
CatL [1]; inhibitor 0.340 nM, 0.00034 µM
  Residual activity (Vi/V0): 1.076 and 0.6362 and 0.1912 and 0.3311 and 0.2442 and 0.7013 and 0.6724 and 0.6039 and 0.9136 and 0.9341
CatL [1]; inhibitor 0.612 nM, 0.000612 µM
  Residual activity (Vi/V0): 0.7699 and 0.3953 and 0.2966 and 0.328 and 0.2718 and 0.8608 and 0.8769 and 0.888 and 0.6121 and 0.7229
CatL [1]; inhibitor 1.103 nM, 0.001103 µM
  Residual activity (Vi/V0): 0.6194 and 0.292 and 0.1922 and 0.2117 and 0.1777 and 0.7372 and 0.725 and 0.6702 and 0.5009 and 0.6045
CatL [1]; inhibitor 1.985 nM, 0.001985 µM
  Residual activity (Vi/V0): 0.4333 and 0.2071 and 0.1127 and 0.1262 and 0.1102 and 0.4283 and 0.4219 and 0.4519 and 0.4308 and 0.4332
CatL [1]; mean with standard deviation and 95% confidence interval, pH 5.5, 37 °C
  Ki: 0.131 nM
CatL [2]
  reversibility of covalent bond to cathepsin: reversible
